IC50 and viability, T/C data for two compounds are collected here from PubChem BioAssay AID2060910 (Molecular Pharmacology Branch, DTP, NCI, 2025).

For this experiment, the system named is 242566-281-R-J2-PDC complex spheroid viability. The experiment is described as follows: Anticancer human tumor 242566-281-R-J2-PDC patient-derived pancreatic carcinoma cell line growth inhibition [RAS]. The conditions noted are these: for viability, T/C: stronger effect = lower value. The source says:
RAS pathway inhibitors in Combinations in Complex Spheroids
A high-throughput screen of multi-cell type tumor spheroids was designed to identify active combinations of RAS pathway inhibitors and targeted small molecules. Complex spheroids include a stromal component modeled by human endothelial cells (HUVEC) and fibroblasts modeled by human mesenchymal stem cells (MSCs). The concentration ranges selected for each drug and investigational agent were based upon clinically achievable concentrations if the clinical Cmax of the agent was known.
Compounds. The drugs and investigational agents: abemaciclib (NSC768073), cobimetinib (NSC768068), divarasib (GDC6063, NSC841802), docetaxel (NSC628503), GDC-1971 (RLY-1971, NSC841576), gemcitabine (NSC613327), inavolisib (NSC800729), ipatasertib (NSC767898), KB-0742 (NSC834161), MRTX-1133 (NSC836407), osimertinib (NSC779217), RMC-4630 (NSC839698), RMC-6236 (NSC851965), RMC-6291 (NSC852671), Ro-3306 (NSC812927), sapanisertib (NSC764658), SN-38 (NSC673596), staurosporine (NSC755774), SY5609 (NSC837396), and tovorafenib (DAY101, NSC766906), were obtained from the National Cancer Institute (NCI) Developmental Therapeutics Program Chemical Repository. The FDA-approved anticancer drug set is available from the NCI Developmental Therapeutics Program. […] The stock solutions were prepared in dimethyl sulfoxide (DMSO, Sigma-Aldrich, St. Louis, MO, cat. D2650) at 800-fold the tested concentration and stored at -70 degrees C prior to their use. All drugs and investigational agents were tested over a range starting from a high concentration at or near the clinical Cmax and decreasing in half-log increments. If the clinical Cmax for an agent had not been determined, the highest concentration tested was 10 microM.
Cell Culture. All cells were maintained in an incubator at 37 degrees C and 5% CO2 with 95% humidity. The PDC lines were cultured according to standard operating procedures established by the NCI PDMR. All PDCs were thawed and cultured in Matrigel-coated flasks prepared with a working solution of 1X Ham's F-12 nutrient mix, without supplementation (Invitrogen, Waltham, MA, cat. 11765054), 100 U/mL penicillin-streptomycin (Invitrogen, cat. 15140122), and 2.5% Matrigel (Corning Inc., Corning, NY, cat. 354248) for the first three passages. The 362531-283-R-J2-PDC and 782815-120-R-J1-PDC lines were cultured in 6C/Colon 1B media, which includes advanced DMEM/F-12 (Thermo Fisher Scientific, cat. 12634028), 10 mM HEPES (Thermo Fisher Scientific, cat. 15630080), 1X GlutaMAX supplement (Thermo Fisher Scientific, cat. 35050061), 0.1 mg/mL primocin (InvivoGen, San Diego, CA, cat. ant-pm-2), 10% defined fetal bovine serum, heat inactivated (HyClone Laboratories Inc., Logan, UT, cat. SH30070.03HI), 50% L-WRN conditioned media (ATCC, cat. CRL-3276), 1.25 mM N-Acetyl-L-cysteine (Sigma-Aldrich, cat. A9165), 10 mM nicotinamide (Sigma-Aldrich, cat. N0636), 1X B-27 supplement (Thermo Fisher Scientific, cat. 17504044), 1X N-2 supplement (Thermo Fisher Scientific, cat. 17502048), 50 ng/mL human EGF (Thermo Fisher Scientific, cat. PHG0311), and 10 microM Y-27632 dihydrochloride (Tocris Bioscience, cat. 1254). The K12877-001-R-J1-PDC line was cultured in 6I media, which includes all 6C/Colon 1B media plus 10 ng/mL human FGF-10 (PeproTech, cat. 100-26), 1 ng/mL human FGF-2 (PeproTech, cat. 100-18B), 1 µM prostaglandin E2 (Tocris Bioscience, cat. 2296), […] hydrocortisone (Sigma-Aldrich, cat. H4001), and […] bovine insulin (Sigma-Aldrich, cat. I6634). The K86415-001-R-J1-PDC line was cultured in 6D media, which includes all 6C/Colon 1B media components minus the L-WRN conditioned media. The 485176-168-R4-J1-PDC was cultured in PANC media, which includes all 6C/Colon 1B media plus 100 ng/mL human FGF-10 (PeproTech, cat. 100-26), 500 nM SB-431542 (Selleckchem, cat. S1067), and 10 nM gastrin (Tocris Bioscience, cat. 3006). […]
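Note: spheroids exposed to compound for 7 days before readout.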
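Throughout, for viability, T/C: 100% = DMSO vehicle control wells.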

Turning to `Nc1ccn(C2OC(CO)C(O)C2(F)F)c(=O)n1` (stereo unspecified) + CCn1c(-c2cccnc2C(C)OC)c2c3cc(ccc31)N1CCOC(CC(NC(=O)C(C(C)C)N(C)C(=O)C3(F)CCN(C(=O)C#CC(C)(C)N(C)C)CC3)C(=O)N3CCCC(N3)C(=O)OCC(C)(C)C2)C1, the IC50 runs as follows: (curve of first compound, second compound 0.000949 µM) 53 nM; (curve of first compound, second compound 0.003 µM) 72.2 nM; (curve of first compound, second compound 0.00949 µM) 90.1 nM; (curve of first compound, second compound 0.03 µM) 67.9 nM; (curve of first compound, second compound 0.0949 µM) 75.3 nM; (curve of first compound, second compound 0.3 µM) 50.5 nM. For the same compound, the viability, T/C (second compound 0.000949 µM, first compound 0.00316 µM) is 114%; the viability, T/C (second compound 0.000949 µM, first compound 0.01 µM) is 88%; the viability, T/C (second compound 0.000949 µM, first compound 0.0316 µM) was 50.5%; the viability, T/C (second compound 0.000949 µM, first compound 0.1 µM) is 45.3%; the viability, T/C (second compound 0.000949 µM, first compound 0.316 µM) is 23.3%; the viability, T/C (second compound 0.000949 µM, first compound 1 µM) is 11.2%. The viability, T/C was 104% (second compound 0.003 µM, first compound 0.00316 µM); 87.2% (second compound 0.003 µM, first compound 0.01 µM); 71.2% (second compound 0.003 µM, first compound 0.0316 µM); 42% (second compound 0.003 µM, first compound 0.1 µM); 21.2% (second compound 0.003 µM, first compound 0.316 µM); 11.6% (second compound 0.003 µM, first compound 1 µM). The viability, T/C is 104% (second compound 0.00949 µM, first compound 0.00316 µM); 92.3% (second compound 0.00949 µM, first compound 0.01 µM); 81.2% (second compound 0.00949 µM, first compound 0.0316 µM); 46.6% (second compound 0.00949 µM, first compound 0.1 µM); 21.6% (second compound 0.00949 µM, first compound 0.316 µM); 13.2% (second compound 0.00949 µM, first compound 1 µM). Further, the viability, T/C is 101% (second compound 0.03 µM, first compound 0.00316 µM); 96% (second compound 0.03 µM, first compound 0.01 µM); 68.5% (second compound 0.03 µM, first compound 0.0316 µM); 41.9% (second compound 0.03 µM, first compound 0.1 µM); 16.4% (second compound 0.03 µM, first compound 0.316 µM); 12% (second compound 0.03 µM, first compound 1 µM). The viability, T/C was 86.4% (second compound 0.0949 µM, first compound 0.00316 µM); 87.1% (second compound 0.0949 µM, first compound 0.01 µM); 64.7% (second compound 0.0949 µM, first compound 0.0316 µM); 49.2% (second compound 0.0949 µM, first compound 0.1 µM); 14.1% (second compound 0.0949 µM, first compound 0.316 µM); 13.4% (second compound 0.0949 µM, first compound 1 µM). The viability, T/C is 91.7% (second compound 0.3 µM, first compound 0.00316 µM); 81.8% (second compound 0.3 µM, first compound 0.01 µM); 65.6% (second compound 0.3 µM, first compound 0.0316 µM); 28.4% (second compound 0.3 µM, first compound 0.1 µM); 15.5% (second compound 0.3 µM, first compound 0.316 µM); 10.1% (second compound 0.3 µM, first compound 1 µM).

As to `CCN1CCN(Cc2ccc(Nc3ncc(F)c(-c4cc(F)c5nc(C)n(C(C)C)c5c4)n3)nc2)CC1`, the viability, T/C by setting is: (compound 0.00316 µM) 102% [middle of 4 runs]; (compound 0.0316 µM) 102% [middle of 4 runs]; (compound 0.1 µM) 99.1% [middle of 4 runs]. Besides, the IC50 (curve of compound) was > 1000 nM.

A word on the IC50: it is the point on the concentration scale where inhibition reaches its midpoint. Usually viability, T/C stands for the ratio of treated to control.
